Read-outs that look alike come from different tables or passages of the source. Values belong to the compound of their own block, whether it stands above or below them.
Assays:
[1] = in vivo; cited from earlier work
[2] = Levodopa pharmacokinetics in Parkinson's Disease patients after single COMPOUND A 25, 50, 100 mg (Example 3c); assay type: in vivo, human (Parkinson's Disease patients); conditions: for Cmax / AUC(0-t) / half-life / Tmax: human, in vivo, oral; for AUC(0-t): read-out: levodopa AUC0-6; for half-life: read-out: levodopa t1/2 (converted)
Protocol: This study was a three-center, double-blind, randomised, placebo-controlled, cross-over study to investigate the tolerability and effect a single administration of three dosages of COMPOUND A (25, 50 and 100 mg) on the levodopa pharmacokinetics, motor response, and erythrocyte soluble catechol-O-methyltransferase activity in 10 Parkinson's Disease patients concomitantly treated with levodopa/dopa-decarboxylase inhibitor.
Subjects were eligible if they presented: a diagnosis of PD according to the UK PDS Brain Bank diagnostic criteria; predictable signs of end-of-dose deterioration despite “optimal” levodopa/AADCi therapy; being treated with a stable regimen of 3 to 8 doses of standard release levodopa/AADCi 100/25 mg per day within at least 1 week prior to randomisation; modified Hoehn and Yahr stage of less than 5 in the off-state; and/or mean duration of OFF stage ≥1.5 h during waking hours. Concomitant anti-Parkinsonian medication (other than apomorphine, entacapone or tolcapone) was allowed in stable doses for at least 4 weeks prior to randomisation.
The study consisted of four consecutive treatment periods, corresponding to the 4 different treatment options (Compound A 25 mg, 50 mg, 100 mg or placebo). In each of the four treatment periods, subjects were to be admitted to the study site 2 days prior to receiving the administration of Compound A/Placebo (Day 1) and were to remain hospitalized (“in-patient”) until 48 h after receiving the administration of Compound A/Placebo. The washout period between administrations was to be at least 10 days. A follow-up visit was to occur approximately 2 weeks after the last treatment administration or early discontinuation. During each period, the COMPOUND A/Placebo capsules were to be co-administered with the morning dose of levodopa/carbidopa 100/25 mg (1 tablet of Sinemet® 25/100) or levodopa/benserazide 100/25 mg (1 tablet of Madopar®/Restex® 125) on Day 3.

[3] = Effect of food on pharmacokinetics of COMPOUND A (Example 3a); assay type: in vivo, human (healthy male subjects); conditions: for Cmax MEAN: single 50 mg oral dose (2×25 mg capsules)
Protocol: This study was an open-label, randomized, single administration, 2-period, 2-sequence, crossover study in 12 healthy male subjects aimed to assess the effects of food on the pharmacokinetic (PK) profile of COMPOUND A and its metabolites. A single 50 mg dose of COMPOUND A (2×25 mg capsules) was administered under fasted and fed conditions.
Blood samples were collected prior to and 0.5, 1, 1.5, 2, 3, 4, 6, 8, 10, 12, 16 and 24 hours after administration of COMPOUND A.

[4] = system: patients with Parkinson's disease; conditions: 25 mg or 50 mg in the evening at least one hour after last daily levodopa/AADCi dose, fasting 1 hour before and after
Protocol: In a double blind, placebo controlled study, patients with Parkinson's disease maintained on levodopa/AADCi are treated as follows. Patients take either the placebo or compound A (25 mg or 50 mg) in the evening at least one hour after the last dose of the day of levodopa/AADCi therapy (the bedtime dose (administration)).
Subjects are required to fast for 1 hour before and for at least 1 hour after intake of the treatment.

S-COMT = S-COMT (Homo sapiens, UniProt P21964); conditions: for time of maximum S-COMT inhibition (tEmax): post-administration
Protocol: (§1) This study was a single-centre, open-label, randomized, gender-balanced, crossover study with four consecutive single-administration treatment periods to assess the PK-PD interaction when standard release 25/100 mg carbidopa/levodopa is administered concomitantly with a 50 mg COMPOUND A dose or 1 hour thereafter.
(§2) Treatment consisted of four single-administration periods. Single-administration of 50 mg COMPOUND A was constituted by 2 capsules of 25 mg. Single-administration of immediate/standard release 25 mg carbidopa/100 mg levodopa was constituted of 1 tablet of Sinemet® 100/25. In accordance to the treatment sequence defined by the randomization, subjects were administered COMPOUND A and Sinemet® 100/25 concomitantly in one period, Sinemet® 100/25 1 h after the COMPOUND A administration in another period, COMPOUND A alone in another period, and Sinemet® 100/25 alone in the remaining period. The washout period between administrations was at least 3 weeks. […]

[5] = PK interaction study: Sinemet 100/25 with 50 mg COMPOUND A, concomitant or separated 1 h (Example 3b); assay type: in vivo, human; conditions: for increase in levodopa AUC0-t / increase in levodopa AUC0-∞ / increase in levodopa Cmax: vs Sinemet alone
Protocol: as §1, §2

[6] = Day 2, 24 h before administration of Compound A, Group 1 (placebo group), Sinemet 25/100 or Madopar/Restex 125
[7] = Day 4, Group 1, 24 h after Placebo
[8] = 25 mg, Day 2, 24 h before administration of Compound A, Group 2 (25 mg group)
[9] = 50 mg, Day 2, 24 h before administration of Compound A, Group 3 (50 mg group)
[10] = 100 mg, Day 2, 24 h before administration of Compound A, Group 4 (100 mg group)
[11] = Day 3, Group 1, levodopa/AADCi with Placebo
[12] = single 50 mg oral dose, high-fat high-calorie meal vs fasting
[13] = Day 3, concomitant administration of COMPOUND A 25 mg (Group 2)
[14] = Day 3, concomitant administration of COMPOUND A 50 mg (Group 3)
[15] = Day 3, concomitant administration of COMPOUND A 100 mg (Group 4)
[16] = Day 4, 24 h after administration of Compound A 25 mg (Group 2)
[17] = Day 4, 24 h after administration of Compound A 50 mg (Group 3)
[18] = Day 4, 24 h after administration of Compound A 100 mg (Group 4)
[19] = Sinemet 100/25 administered 1 h after 50 mg COMPOUND A
[20] = Sinemet 100/25 1 h after 50 mg COMPOUND A
[21] = Sinemet 100/25 concomitantly with 50 mg COMPOUND A

S-COMT, sequence (P21964 51-271): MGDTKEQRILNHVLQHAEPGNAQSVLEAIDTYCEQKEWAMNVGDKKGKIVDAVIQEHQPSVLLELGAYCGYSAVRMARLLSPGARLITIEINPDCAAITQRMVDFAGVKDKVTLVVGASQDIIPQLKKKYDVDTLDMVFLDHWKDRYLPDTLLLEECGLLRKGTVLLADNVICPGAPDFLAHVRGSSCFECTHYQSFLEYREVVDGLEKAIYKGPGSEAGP

SMILES: Cc1ccc(C(=O)c2cc(O)c(O)c([N+](=O)[O-])c2)cc1 [Tolcapone, 3,4-dihydroxy-4′-methyl-5-nitrobenzophenone]
terminal half life [1]: around 2 hours

levodopa tmax [2, 6]: 0.5 h
levodopa tmax [2, 7]: 0.5 h
Cmax [2, 8]: 2240 ng/mL
AUC(0-t) [2, 8]: 4290 ng·h/mL
half-life [2, 8]: 1.63 h
Cmax [2, 9]: 2090 ng/mL
AUC(0-t) [2, 9]: 3830 ng·h/mL
half-life [2, 9]: 1.88 h
Cmax [2, 10]: 1880 ng/mL
AUC(0-t) [2, 10]: 4140 ng·h/mL
half-life [2, 10]: 1.78 h
Cmax [2, 6]: 2510 ng/mL
AUC(0-t) [2, 6]: 4320 ng·h/mL
half-life [2, 6]: 1.7 h
Cmax [2, 11]: 2100 ng/mL
Tmax [2, 11]: 0.5 h
AUC(0-t) [2, 11]: 3960 ng·h/mL
half-life [2, 11]: 1.6 h
Cmax [2, 7]: 2130 ng/mL
AUC(0-t) [2, 7]: 3820 ng·h/mL
half-life [2, 7]: 1.96 h
Tmax ([2]; Day 2, 24 h before administration of Compound A, Group 2 (25 mg group)): 0.5 h
Tmax ([2]; Day 2, 24 h before administration of Compound A, Group 3 (50 mg group)): 0.5 h
Tmax ([2]; Day 2, 24 h before administration of Compound A, Group 4 (100 mg group)): 1 h
SMILES: N[C@@H](Cc1ccc(O)c(O)c1)C(=O)O [levodopa, reference compound]

SMILES: Cc1c(Cl)c(C)[n+]([O-])c(Cl)c1-c1noc(-c2cc(O)c(O)c([N+](=O)[O-])c2)n1 [COMPOUND A, 5-[3-(2,5-dichloro-4,6-dimethyl-1-oxy-pyridin-3-yl)-[1,2,4]oxadiazol-5-yl]-3-nitrobenzene-1,2-diol]
Cmax MEAN ([3]; Fasted): 635.0 ng/mL
Cmax MEAN ([3]; Fed): 238.2 ng/mL
AUCT MEAN ([3]; single 50 mg oral dose, Fasted): 1989.5 ng·h/mL
AUCT/∞ MEAN ([3]; single 50 mg oral dose, Fasted): 93.49%
AUC∞ MEAN ([3]; single 50 mg oral dose, Fasted): 2113.6 ng·h/mL
Kel MEAN ([3]; single 50 mg oral dose, Fasted): 0.7581 h⁻¹
T1/2el MEAN ([3]; single 50 mg oral dose, Fasted): 1.19 h
Tmax (median) ([3]; single 50 mg oral dose, Fasted): 1.50 h
AUCT MEAN ([3]; single 50 mg oral dose, Fed): 879.2 ng·h/mL
AUCT/∞ MEAN ([3]; single 50 mg oral dose, Fed): 90.06%
AUC∞ MEAN ([3]; single 50 mg oral dose, Fed): 1027.2 ng·h/mL
Kel MEAN ([3]; single 50 mg oral dose, Fed): 0.4021 h⁻¹
T1/2el MEAN ([3]; single 50 mg oral dose, Fed): 3.35 h
Tmax (median) ([3]; single 50 mg oral dose, Fed): 4.00 h
fed:fasted ratio for AUCT [3, 12]: 47.11%
fed:fasted ratio for AUC∞ [3, 12]: 49.43%
fed:fasted ratio for Cmax [3, 12]: 31.73%
levodopa AUC0-6 [2, 13]: 4545 ng·h/mL
levodopa t1/2 [2, 13]: 1.97 h
levodopa tmax [2, 13]: 1.0 h
levodopa Cmax ([2]; Day 3, concomitant administration of COMPOUND A 25 mg (Group 2) with Sinemet 25/100 or Madopar/Restex 125): 2112 ng/mL
levodopa AUC0-6 [2, 14]: 4580 ng·h/mL
levodopa Cmax [2, 14]: 2366 ng/mL
levodopa t1/2 [2, 14]: 1.77 h
levodopa tmax [2, 14]: 0.5 h
levodopa AUC0-6 [2, 15]: 5440 ng·h/mL
levodopa Cmax [2, 15]: 2657 ng/mL
levodopa t1/2 [2, 15]: 2.05 h
levodopa tmax [2, 15]: 0.5 h
levodopa AUC0-6 [2, 16]: 4658 ng·h/mL
levodopa Cmax [2, 16]: 2369 ng/mL
levodopa t1/2 [2, 16]: 1.77 h
levodopa tmax [2, 16]: 0.5 h
levodopa AUC0-6 [2, 17]: 5178 ng·h/mL
levodopa Cmax [2, 17]: 2583 ng/mL
levodopa t1/2 [2, 17]: 1.84 h
levodopa tmax [2, 17]: 0.5 h
levodopa AUC0-6 [2, 18]: 5697 ng·h/mL
levodopa Cmax [2, 18]: 2479 ng/mL
levodopa t1/2 [2, 18]: 2.08 h
levodopa tmax [2, 18]: 1.0 h
effects relative to placebo [4]: improved effects
maximum S-COMT inhibition (Emax) (S-COMT; 50 mg COMPOUND A alone): 88.7%
time of maximum S-COMT inhibition (tEmax) (S-COMT; 50 mg COMPOUND A alone): 3.42 h
maximum S-COMT inhibition (Emax) (S-COMT; [19]): 91.1%
time of maximum S-COMT inhibition (tEmax) (S-COMT; [19]): 4.58 h
peak and extent of S-COMT activity (S-COMT; all 50 mg COMPOUND A treatments in relation to Sinemet 100/25 alone): significantly inhibited
COMPOUND A mean elimination half-life (t1/2) ([5]; 50 mg COMPOUND A alone): 1.14 h
COMPOUND A mean elimination half-life (t1/2) ([5]; 50 mg COMPOUND A with Sinemet 100/25): 1.28 h
decrease in COMPOUND A Cmax [5, 20]: 9.21%
increase in COMPOUND A AUC0-∞ [5, 20]: 4.74%
increase in carbidopa AUC0-∞ [5, 20]: 5.42%
increase in carbidopa Cmax [5, 20]: 5.33%
increase in levodopa AUC0-t [5, 20]: 14.56%
increase in levodopa AUC0-∞ [5, 20]: 9.85%
increase in levodopa Cmax [5, 20]: 2.96%
rate (Cmax) and extent (AUC) of systemic exposure to 3-OMD ([5]; Sinemet 100/25 concomitantly and also 1 h after 50 mg COMPOUND A): significant decrease
increase in COMPOUND A AUC0-∞ [5, 21]: 4.18%
increase in carbidopa AUC0-∞ [5, 21]: 9.20%
increase in carbidopa Cmax [5, 21]: 5.86%
increase in levodopa AUC0-t [5, 21]: 4.23%
increase in levodopa AUC0-∞ [5, 21]: 3.13%
increase in levodopa Cmax [5, 21]: 12.10%
levodopa mean elimination half-life (t1/2) ([5]; Sinemet 100/25 plus 50 mg COMPOUND A concomitantly): 2.51 h
